{"source": "patent US10336762B2", "about": "(priority 2017, dated 2019)", "key": {"IRAK4 enzyme": {"target": "IRAK4 enzyme (Homo sapiens (Human), UniProt Q9NWZ3)", "sequence (Q9NWZ3 whole entry)": "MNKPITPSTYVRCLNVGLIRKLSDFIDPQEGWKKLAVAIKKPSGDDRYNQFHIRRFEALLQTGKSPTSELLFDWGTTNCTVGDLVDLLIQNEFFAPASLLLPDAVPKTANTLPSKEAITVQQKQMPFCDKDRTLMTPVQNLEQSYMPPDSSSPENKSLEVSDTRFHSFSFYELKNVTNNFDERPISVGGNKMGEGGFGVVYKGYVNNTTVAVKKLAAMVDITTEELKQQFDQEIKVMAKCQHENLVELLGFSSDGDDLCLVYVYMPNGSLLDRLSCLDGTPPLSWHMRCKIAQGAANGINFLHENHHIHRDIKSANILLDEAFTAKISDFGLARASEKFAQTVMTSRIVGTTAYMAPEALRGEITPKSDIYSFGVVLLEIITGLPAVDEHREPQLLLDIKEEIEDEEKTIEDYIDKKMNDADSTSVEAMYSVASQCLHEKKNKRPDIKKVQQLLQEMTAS", "assay": "biochemical", "type": "biochemical", "conditions": "IRAK4 enzyme, TR-FRET, 500 μM ATP"}, "TNFα": {"tested_on": "TNFα", "assay": "cells", "type": "cell-based, human", "conditions": "Homo sapiens, Monocyte, LPS-stimulated human monocytes, TNFα by TR-FRET; read-out: EC50 TNF"}}, "data": [{"smiles": "N#Cc1cnn2c(-c3cc(NC45CCC(O)(CC4)CC5)c(C(=O)NCC(=O)N4CCC4)cn3)ccc2c1", "note": "[Example 923, N-(2-(azetidin-1-yl)-2-oxoethyl)-6-(3-cyanopyrrolo[1,2-b]pyridazin-7-yl)-4-((4-hydroxybicyclo[2.2.2]octan-1-yl)amino) nicotinamide]", "values": [{"measurement": "IC50", "setting": "IRAK4 enzyme", "result": "< 1", "unit": "nM"}, {"measurement": "EC50", "setting": "TNFα", "result": 52, "unit": "nM"}]}, {"smiles": "CC1(C)CC1CNC(=O)c1cnc(-c2ccc3cc(C#N)cnn23)cc1NC12CCC(O)(CC1)CC2", "note": "(centres unmarked) [Example 924, 6-(3-cyanopyrrolo[1,2-b]pyridazin-7-yl)-N-((2,2-dimethylcyclopropyl)methyl)-4-((4-hydroxy-bicyclo[2.2.2]octan-1-yl)amino)nicotinamide]", "values": [{"measurement": "IC50", "setting": "IRAK4 enzyme", "result": 1, "unit": "nM"}, {"measurement": "EC50", "setting": "TNFα", "result": 119, "unit": "nM"}]}, {"smiles": "Cn1cncc1CNC(=O)c1cnc(-c2ccc3cc(C#N)cnn23)cc1NC12CCC(O)(CC1)CC2", "note": "[Example 925, 6-(3-cyanopyrrolo[1,2-b]pyridazin-7-yl)-4-((4-hydroxybicyclo[2.2.2]octan-1-yl)amino)-N-((1-methyl-1H-imidazol-5-yl)methyl)nicotinamide]", "values": [{"measurement": "IC50", "setting": "IRAK4 enzyme", "result": 4, "unit": "nM"}, {"measurement": "EC50", "setting": "TNFα", "result": 583, "unit": "nM"}]}, {"smiles": "Cn1cc(CNC(=O)c2cnc(-c3ccc4cc(C#N)cnn34)cc2NC23CCC(O)(CC2)CC3)cn1", "note": "[Example 926, 6-(3-cyanopyrrolo[1,2-b]pyridazin-7-yl)-4-((4-hydroxybicyclo[2.2.2]octan-1-yl)amino)-N-((1-methyl-1H-pyrazol-4-yl)methyl)nicotinamide]", "values": [{"measurement": "IC50", "setting": "IRAK4 enzyme", "result": 2, "unit": "nM"}, {"measurement": "EC50", "setting": "TNFα", "result": 192, "unit": "nM"}]}, {"smiles": "CC(C)(O)[C@H](F)CNC(=O)c1cnc(-c2ccc3cc(C#N)cnn23)cc1NC1CC(CNC(=O)C2CCC2)C1", "note": "(stereo partly drawn) [Example 927, 6-(3-cyanopyrrolo[1,2-b]pyridazin-7-yl)-4-(((1r,3R)-3-(cyclobutanecarboxamido-methyl)cyclobutyl)amino)-N-((R)-2-fluoro-3-hydroxy-3-methylbutyl)nicotinamide]", "values": [{"measurement": "IC50", "setting": "IRAK4 enzyme", "result": "< 1", "unit": "nM"}, {"measurement": "EC50", "setting": "TNFα", "result": 22, "unit": "nM"}]}, {"smiles": "Cn1ccnc1CNC(=O)c1cnc(-c2ccc3cc(C#N)cnn23)cc1NC12CCC(O)(CC1)CC2", "note": "[Example 928, 6-(3-cyanopyrrolo[1,2-b]pyridazin-7-yl)-4-((4-hydroxybicyclo[2.2.2]octan-1-yl)amino)-N-((1-methyl-1H-imidazol-2-yl)methyl)nicotinamide]", "values": [{"measurement": "IC50", "setting": "IRAK4 enzyme", "result": 1, "unit": "nM"}, {"measurement": "EC50", "setting": "TNFα", "result": 71, "unit": "nM"}]}, {"smiles": "Cn1cnc(CNC(=O)c2cnc(-c3ccc4cc(C#N)cnn34)cc2NC23CCC(O)(CC2)CC3)c1", "note": "[Example 929, 6-(3-cyanopyrrolo[1,2-b]pyridazin-7-yl)-4-((4-hydroxybicyclo[2.2.2]octan-1-yl)amino)-N-((1-methyl-1H-imidazol-4-yl)methyl)nicotinamide]", "values": [{"measurement": "IC50", "setting": "IRAK4 enzyme", "result": 1, "unit": "nM"}, {"measurement": "EC50", "setting": "TNFα", "result": 126, "unit": "nM"}]}, {"smiles": "N#Cc1cnn2c(-c3cc(NC45CCC(O)(CC4)CC5)c(C(=O)NCc4ccccn4)cn3)ccc2c1", "note": "[Example 930, 6-(3-cyanopyrrolo[1,2-b]pyridazin-7-yl)-4-((4-hydroxybicyclo[2.2.2]octan-1-yl)amino)-N-(pyridin-2-ylmethyl)nicotinamide]", "values": [{"measurement": "IC50", "setting": "IRAK4 enzyme", "result": 2, "unit": "nM"}, {"measurement": "EC50", "setting": "TNFα", "result": 147, "unit": "nM"}]}, {"smiles": "N#Cc1cnn2c(-c3cc(NC45CCC(O)(CC4)CC5)c(C(=O)NCc4cccnc4)cn3)ccc2c1", "note": "[Example 931, 6-(3-cyanopyrrolo[1,2-b]pyridazin-7-yl)-4-((4-hydroxybicyclo[2.2.2]octan-1-yl)amino)-N-(pyridin-3-ylmethyl) nicotinamide]", "values": [{"measurement": "IC50", "setting": "IRAK4 enzyme", "result": 3, "unit": "nM"}, {"measurement": "EC50", "setting": "TNFα", "result": 163, "unit": "nM"}]}, {"smiles": "N#Cc1cnn2c(-c3cc(NC45CCC(O)(CC4)CC5)c(C(=O)NCc4ccncc4)cn3)ccc2c1", "note": "[Example 932, 6-(3-cyanopyrrolo[1,2-b]pyridazin-7-yl)-4-((4-hydroxybicyclo[2.2.2]octan-1-yl)amino)-N-(pyridin-4-ylmethyl) nicotinamide]", "values": [{"measurement": "IC50", "setting": "IRAK4 enzyme", "result": 3, "unit": "nM"}, {"measurement": "EC50", "setting": "TNFα", "result": 168, "unit": "nM"}]}, {"smiles": "N#Cc1cnn2c(-c3cc(NC45CCC(O)(CC4)CC5)c(C(=O)NCc4ncccn4)cn3)ccc2c1", "note": "[Example 933, 6-(3-cyanopyrrolo[1,2-b]pyridazin-7-yl)-4-((4-hydroxybicyclo[2.2.2]octan-1-yl)amino)-N-(pyrimidin-2-ylmethyl)nicotinamide]", "values": [{"measurement": "IC50", "setting": "IRAK4 enzyme", "result": 4, "unit": "nM"}, {"measurement": "EC50", "setting": "TNFα", "result": 269, "unit": "nM"}]}, {"smiles": "Cn1nccc1CNC(=O)c1cnc(-c2ccc3cc(C#N)cnn23)cc1NC12CCC(O)(CC1)CC2", "note": "[Example 934, 6-(3-cyanopyrrolo[1,2-b]pyridazin-7-yl)-4-((4-hydroxybicyclo[2.2.2]octan-1-yl)amino)-N-((1-methyl-1H-pyrazol-5-yl)methyl)nicotinamide]", "values": [{"measurement": "IC50", "setting": "IRAK4 enzyme", "result": 3, "unit": "nM"}, {"measurement": "EC50", "setting": "TNFα", "result": 271, "unit": "nM"}]}, {"smiles": "Cn1ccc(CNC(=O)c2cnc(-c3ccc4cc(C#N)cnn34)cc2NC23CCC(O)(CC2)CC3)n1", "note": "[Example 935, 6-(3-cyanopyrrolo[1,2-b]pyridazin-7-yl)-4-((4-hydroxybicyclo[2.2.2]octan-1-yl)amino)-N-((1-methyl-1H-pyrazol-3-yl)methyl)nicotinamide]", "values": [{"measurement": "IC50", "setting": "IRAK4 enzyme", "result": 2, "unit": "nM"}, {"measurement": "EC50", "setting": "TNFα", "result": 153, "unit": "nM"}]}, {"smiles": "CC(C)(O)[C@H](F)CNC(=O)c1cnc(-c2ccc3cc(C#N)cnn23)cc1-n1cc(-c2cnc(N)cn2)cn1", "note": "[Example 936, (R)-4-(4-(5-aminopyrazin-2-yl)-1H-pyrazol-1-yl)-6-(3-cyanopyrrolo[1,2-b]pyridazin-7-yl)-N-(2-fluoro-3-hydroxy-3-methylbutyl) nicotinamide]", "values": [{"measurement": "IC50", "setting": "IRAK4 enzyme", "result": 147, "unit": "nM"}, {"measurement": "EC50", "setting": "TNFα", "result": "> 10000", "unit": "nM"}]}, {"smiles": "CC(C)(O)[C@H](F)CNC(=O)c1cnc(-c2ccc3cc(C#N)cnn23)cc1N[C@H]1C[C@H](CNC(=O)C23CC(C2)C3)C1", "note": "[Example 937, 4-(((1r,3R)-3-((bicyclo[1.1.1]pentane-1-carboxamido)methyl)cyclobutyl)amino)-6-(3-cyanopyrrolo[1,2-b]pyridazin-7-yl)-N-((R)-2-fluoro-3-hydroxy-3-methylbutyl)nicotinamide]", "values": [{"measurement": "IC50", "setting": "IRAK4 enzyme", "result": 2, "unit": "nM"}, {"measurement": "EC50", "setting": "TNFα", "result": 133, "unit": "nM"}]}, {"smiles": "CC(C)C(=O)NC[C@H]1C[C@H](Nc2cc(-c3ccc4cc(C#N)cnn34)ncc2C(=O)NC[C@@H](F)C(C)(C)O)C1", "note": "[Example 938, 6-(3-cyanopyrrolo[1,2-b]pyridazin-7-yl)-N-((R)-2-fluoro-3-hydroxy-3-methylbutyl)-4-(((1r,3R)-3-(isobutyramidomethyl)cyclobutyl)amino) nicotinamide]", "values": [{"measurement": "IC50", "setting": "IRAK4 enzyme", "result": 1, "unit": "nM"}, {"measurement": "EC50", "setting": "TNFα", "result": 68, "unit": "nM"}]}, {"smiles": "CC(C)(O)[C@H](F)CNC(=O)c1cnc(-c2ccc3cc(C#N)cnn23)cc1-n1cc(-c2ccc(N)cn2)cn1", "note": "[Example 939, (R)-4-(4-(5-aminopyridin-2-yl)-1H-pyrazol-1-yl)-6-(3-cyanopyrrolo[1,2-b]pyridazin-7-yl)-N-(2-fluoro-3-hydroxy-3-methyl-butyl)nicotinamide]", "values": [{"measurement": "IC50", "setting": "IRAK4 enzyme", "result": 642, "unit": "nM"}, {"measurement": "EC50", "setting": "TNFα", "result": "> 10000", "unit": "nM"}]}, {"smiles": "CC(C)(O)[C@H](F)CNC(=O)c1cnc(-c2ccc3cc(C#N)cnn23)cc1N[C@H]1C[C@H](CNC(=O)C2CC(F)(F)C2)C1", "note": "[Example 940, 6-(3-cyanopyrrolo[1,2-b]pyridazin-7-yl)-4-(((1r,3R)-3-((3,3-difluorocyclobutane-1-carboxamido)methyl)cyclobutyl)amino)-N-((R)-2-fluoro-3-hydroxy-3-methylbutyl)nicotinamide]", "values": [{"measurement": "IC50", "setting": "IRAK4 enzyme", "result": "< 1", "unit": "nM"}, {"measurement": "EC50", "setting": "TNFα", "result": 44, "unit": "nM"}]}, {"smiles": "CC(C)(O)[C@H](F)CNC(=O)c1cnc(-c2ccc3cc(C#N)cnn23)cc1N[C@H]1C[C@H](CNC(=O)C2CC2F)C1", "note": "(stereo partly drawn) [Example 941, 6-(3-cyanopyrrolo[1,2-b]pyridazin-7-yl)-N-((R)-2-fluoro-3-hydroxy-3-methylbutyl)-4-(((1R,3R)-3-(((1R,2R)-2-fluorocyclo-propane-1-carboxamido)methyl)cyclobutyl)amino) nicotinamide]", "values": [{"measurement": "IC50", "setting": "IRAK4 enzyme", "result": "< 1", "unit": "nM"}, {"measurement": "EC50", "setting": "TNFα", "result": 19, "unit": "nM"}]}, {"smiles": "C[C@H](NC(=O)c1cnc(-c2ccc3cc(C#N)cnn23)cc1NC12CCC(O)(CC1)CC2)C(=O)N1CC(F)(F)C1", "note": "[Example 942, (S)-6-(3-cyanopyrrolo[1,2-b]pyridazin-7-yl)-N-(1-(3,3-difluoroazetidin-1-yl)-1-oxopropan-2-yl)-4-((4-hydroxybicyclo[2.2.2]octan-1-yl)amino) nicotinamide]", "values": [{"measurement": "IC50", "setting": "IRAK4 enzyme", "result": 8, "unit": "nM"}, {"measurement": "EC50", "setting": "TNFα", "result": 587, "unit": "nM"}]}, {"smiles": "C[C@H](NC(=O)c1cnc(-c2ccc3cc(C#N)cnn23)cc1NC12CCC(O)(CC1)CC2)C(=O)N1CCOCC1", "note": "[Example 943, (S)-6-(3-cyano-pyrrolo[1,2-b]pyridazin-7-yl)-4-((4-hydroxy-bicyclo[2.2.2]octan-1-yl)amino)-N-(1-morpholino-1-oxopropan-2-yl) nicotinamide]", "values": [{"measurement": "IC50", "setting": "IRAK4 enzyme", "result": 35, "unit": "nM"}, {"measurement": "EC50", "setting": "TNFα", "result": 836, "unit": "nM"}]}, {"smiles": "N#Cc1cnn2c(-c3cc(NC45CCC(O)(CC4)CC5)c(C(=O)NCC(=O)N4CCC(O)C4)cn3)ccc2c1", "note": "[Example 944, (S)-6-(3-cyano-pyrrolo[1,2-b]pyridazin-7-yl)-4-((4-hydroxy-bicyclo[2.2.2]octan-1-yl)amino)-N-(2-(3-hydroxypyrrolidin-1-yl)-2-oxoethyl) nicotinamide]", "values": [{"measurement": "IC50", "setting": "IRAK4 enzyme", "result": "< 1", "unit": "nM"}, {"measurement": "EC50", "setting": "TNFα", "result": 209, "unit": "nM"}]}, {"smiles": "CNC(=O)[C@H](F)CNC(=O)c1cnc(-c2ccc3cc(C#N)cnn23)cc1NC12CCC(O)(CC1)CC2", "note": "[Example 945, (R)-6-(3-cyanopyrrolo[1,2-b]pyridazin-7-yl)-N-(2-fluoro-3-(methylamino)-3-oxopropyl)-4-((4-hydroxybicyclo[2.2.2]octan-1-yl)amino) nicotinamide]", "values": [{"measurement": "IC50", "setting": "IRAK4 enzyme", "result": 1, "unit": "nM"}, {"measurement": "EC50", "setting": "TNFα", "result": 116, "unit": "nM"}]}, {"smiles": "CN(C)C(=O)[C@H](F)CNC(=O)c1cnc(-c2ccc3cc(C#N)cnn23)cc1NC12CCC(O)(CC1)CC2", "note": "[Example 946, (R)-6-(3-cyanopyrrolo[1,2-b]pyridazin-7-yl)-N-(3-(dimethylamino)-2-fluoro-3-oxopropyl)-4-((4-hydroxybicyclo[2.2.2]octan-1-yl)amino) nicotinamide]", "values": [{"measurement": "IC50", "setting": "IRAK4 enzyme", "result": 1, "unit": "nM"}, {"measurement": "EC50", "setting": "TNFα", "result": 120, "unit": "nM"}]}, {"smiles": "N#Cc1cnn2c(-c3cc(NC45CCC(O)(CC4)CC5)c(C(=O)NC[C@@H](F)C(=O)N4CC(F)(F)C4)cn3)ccc2c1", "note": "[Example 947, (R)-6-(3-cyanopyrrolo[1,2-b]pyridazin-7-yl)-N-(3-(3,3-difluoroazetidin-1-yl)-2-fluoro-3-oxopropyl)-4-((4-hydroxybicyclo[2.2.2]octan-1-yl)amino) nicotinamide]", "values": [{"measurement": "IC50", "setting": "IRAK4 enzyme", "result": "< 1", "unit": "nM"}, {"measurement": "EC50", "setting": "TNFα", "result": 207, "unit": "nM"}]}]}
